Results: patent US12257256B2, “Compositions and methods for inhibiting type 1 collagen production” (Florida State University Research Foundation, Inc., priority 2020, dated 2025)

Key:
LARP6/5′SL RNA complex = molecular target: T1, LARP6/5′SL RNA complex (Homo sapiens, UniProt Q9BRS8); experiment: Gel mobility shift: purified/recombinant LARP6 binding to 5′ stem-loop RNA in vitro; details: recombinant LARP6, electrophoretic mobility shift assay, FIG. 12
T1 sequence (Q9BRS8 1-491): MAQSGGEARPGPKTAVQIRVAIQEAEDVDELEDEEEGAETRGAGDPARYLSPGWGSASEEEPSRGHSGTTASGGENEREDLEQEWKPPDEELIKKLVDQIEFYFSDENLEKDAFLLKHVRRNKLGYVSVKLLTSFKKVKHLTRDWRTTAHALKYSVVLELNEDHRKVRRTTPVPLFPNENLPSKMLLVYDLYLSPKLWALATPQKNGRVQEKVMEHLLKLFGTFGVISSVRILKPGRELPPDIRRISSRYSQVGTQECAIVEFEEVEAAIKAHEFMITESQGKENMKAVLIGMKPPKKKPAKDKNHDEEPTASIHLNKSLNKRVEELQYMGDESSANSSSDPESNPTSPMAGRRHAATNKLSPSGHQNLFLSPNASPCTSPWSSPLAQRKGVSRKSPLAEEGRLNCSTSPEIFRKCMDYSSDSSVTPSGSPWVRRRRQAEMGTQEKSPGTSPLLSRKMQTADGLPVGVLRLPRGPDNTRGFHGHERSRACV
Experimental: Next, the inhibition of LARP6 binding was tested by gel mobility shift experiments in which binding of purified LARP6 to 5′SL RNA was resolved as protein/RNA complex in gel electrophoresis.
To assess the efficacy of CID 71314610 in inhibiting LARP6 binding to its target sequence, the 5′ stem-loop of type I collagen mRNAs, recombinant LARP6 protein was added to 5′ stem-loop RNA in vitro and CID 71314610 was added at nano-M concentrations to the reaction. The formation of LARP6/RNA complex was analyzed by electrophoretic mobility shift assay.

[1] = system: type I collagen secretion by human lung fibroblasts; experiment: Type I collagen secretion by human lung fibroblasts (western blot of medium); type: cell-based
Experimental: Based on the ability of the cefixime preparation 1 component to inhibit LARP6/5′SL interaction, cefixime preparation 2 was tested to inhibit type 1 collagen production by human lung fibroblasts. The cells were treated with cefixime preparation 2 in a range of concentrations for 18 hours. The cellular medium was changed and the accumulation of type I collagen into the fresh medium was measured after 3 hours. This provided an estimate of the rate by which the cells can secrete type I collagen. […] At 50 μM, secretion of type I collagen was reduced by about 50%. At 100 μM it was reduced by about 80%. […] This provided evidence that a component of commercial cefixime preparations can act as antifibrotic drugs. Human lung fibroblasts are responsible for lung fibrosis. These cells were cultured in vitro and CID 71314610 was added to the cellular medium at 0.5-50 μM. After overnight incubation the medium was changed and secretion of type I collagen into the fresh medium was analyzed by western blot. The rate of collagen secretion into the medium is a measure of the profibrotic activity of cells. Type I collagen is composed of two polypeptides, α1(I) and α2(I), so both were analyzed. […] In three independent experiments the expression of α1(I) and α2(I) polypeptides was normalized to the expression of fibronectin and plotted as function of CID 71314610 concentration (FIG. 13, bottom panel).

[2] = system: fibronectin secretion by human lung fibroblasts; experiment: Fibronectin secretion by human lung fibroblasts (western blot, specificity control); type: cell-based; details: same treatment as collagen read-out
Experimental: At 50 μM, secretion of type I collagen was reduced by about 50%. At 100 μM it was reduced by about 80%. […] This provided evidence that a component of commercial cefixime preparations can act as antifibrotic drugs.
Human lung fibroblasts are responsible for lung fibrosis. These cells were cultured in vitro and CID 71314610 was added to the cellular medium at 0.5-50 μM. After overnight incubation the medium was changed and secretion of type I collagen into the fresh medium was analyzed by western blot. The rate of collagen secretion into the medium is a measure of the profibrotic activity of cells. Type I collagen is composed of two polypeptides, α1(I) and α2(I), so both were analyzed. […] In three independent experiments the expression of α1(I) and α2(I) polypeptides was normalized to the expression of fibronectin and plotted as function of CID 71314610 concentration (FIG. 13, bottom panel).

purified LARP6 protein = molecular target: T2, purified LARP6 protein (Homo sapiens, UniProt Q9BRS8); experiment: Affinity binding of commercial cefixime preparation to purified LARP6, elution and mass spectrometry; details: FIG. 11
T2 sequence (Q9BRS8 1-491): T1 sequence (Q9BRS8 1-491)
Text: The component with antifibrotic activity in the commercial cefixime preparations was identified by affinity binding of the commercial cefixime preparations to the purified LARP6 protein, followed by elution of the bound molecular species and their identification by mass spectrometry. […] This component has two diastereomer isoforms which were present in miniscule amounts in the commercial cefixime preparations, but both were sequestered by LARP6 protein.

CC1OC(=O)C2=C1CS[C@H](CNC(=O)/C(=N\OCC(=O)O)c1csc(N)n1)N2 (mixture of isomers) [CID 71314610, 2-[[[(Z)-1-(2-Aminothiazol-4-yl)-2-[[[(2R,5RS)-5-methyl-7-oxo-1,2,5,7-tetrahydro-4H-furo[3,4-d][1,3]thiazin-2-yl]methyl]amino]-2-oxoethylidene]amino]oxy]acetic acid]
dissociation of LARP6/RNA complexes (LARP6/5′SL RNA complex; 50 nM): 50% | dissociation of LARP6/RNA complexes (LARP6/5′SL RNA complex; 100 nM): ~90% | secretion of α1(I) and α2(I) collagen polypeptides ([1]; 0.5-50 μM, overnight incubation, FIG. 13 upper panel): inhibited by CID 71314610 in the concentration dependent manner | concentration with highly statistically significant inhibition of both polypeptides comprising type I collagen ([1]; three independent experiments, normalized to fibronectin, FIG. 13 bottom panel): 5 µM | secretion of fibronectin [2]: not affected | fraction of input present in cefixime preparation bound by LARP6 (purified LARP6 protein; one diastereomer): 50% | fraction of input present in cefixime preparation bound by LARP6 (purified LARP6 protein; the other diastereomer): 100%
